# According to patent publication US10919902B2, “Hetero-halo inhibitors of histone deacetylase” (Alkermes, Inc., priority 2015, dated 2021):
# Biological target: recombinant human HDACs (Homo sapiens)
# Assay: HDAC enzymatic assay
# Assay type: biochemical
# Details: 5 nM HDAC enzyme, 5 h pre-incubation, 17 h reaction at 25° C.; isoform not given; read-out: IC50
# Description: All recombinant human HDACs were purchased from BPS Bioscience. The substrate, FAM-TSRHK(AC)KL-CONH, was synthesized at NanoSyn. Final assay reactions contained 100 mM HEPES (pH 7.5), 50 mM KCl, 0.1% BSA, 0.01% Triton X-100, 1% DMSO, 1 uM substrate and 5 nM HDAC enzyme. Enzyme and compounds were pre-incubated at 25° C. for 5 hours and reactions were initiated by addition of substrate. 10 uL reactions were incubated for 17 hours at 25° C. and terminated by the addition of 40 uL of buffer containing 100 mM HEPES (pH 7.5), 0.1% BSA, 0.01% Triton X-100 and 0.05% SDS. Substrate and product peptides present in each sample were separated electrophoretically using the LabChip 3000 capillary electrophoresis instrument. Change in the relative fluorescence intensity of the substrate and product peaks reflects enzyme activity. Reaction progress was determined as the product to sum ratio (PSR):P/(S+P), where P is the peak height of the product peptide and S is the peak height of the substrate peptide. Reactions were performed in duplicate at 12 concentrations, (3× serial dilutions starting at 30 uM). IC50 values were calculated using a 4 Parameter Logistic Model.
row,IC50 [µM],SMILES
1,> 5,Nc1ccc(-c2ccccc2)nc1NC(=O)C1CCN(Cc2ccccc2F)CC1 [Compound 379]
2,> 5,Nc1ccc(-c2ccccc2)nc1NC(=O)N1CC2CN(C3COC3)CC2C1 (stereo not drawn) [Compound 199]
3,> 5,Nc1ccc(-c2ccc(F)cc2)nc1NC(=O)N1C[C@@H]2[C@@H](CN3CCC3)[C@@H]2C1 [Compound 270]
4,0.5 to 5,Nc1ccc(-c2cccnc2)nc1NC(=O)c1nc2c(s1)CCN(CCF)C2 [Compound 164]
5,> 5,Nc1ccc(-c2ccccc2)nc1NC(=O)C1CCN(C2COC2)CC1 [Compound 381]
6,> 5,Nc1ccc(-c2ccc(F)cc2)nc1NC(=O)N1CC2CN(CCF)CC2C1 (stereo not drawn) [Compound 183]
7,> 5,Nc1ccc(-c2cccnc2)nc1NC(=O)N1CCC2(CCCNC2)C1 (stereo not drawn) [Compound 171]
8,> 5,Nc1ccc(-c2ccc(F)cc2)nc1NC(=O)C1CN(c2ccccn2)C1 [Compound 192]
9,> 5,CN1CCC2(CC1)CCN(C(=O)Nc1nc(-c3cccnc3)ccc1N)C2 [Compound 210]
10,> 5,Nc1ccc(-c2ccc(F)cc2)nc1NC(=O)N1CC2CN(C3CCOCC3)CC2C1 (stereo not drawn) [Compound 236]
11,0.1 to 0.5,CN1CCN(Cc2cnc3c(c2)CN(C(=O)Nc2nc(-c4ccc(F)cc4)ccc2N)C3)CC1 [Compound 168]
12,0.5 to 5,Nc1ccc(-c2ccc(F)cc2)nc1NC(=O)N1Cc2cncnc2C1 [Compound 277]
13,0.1 to 0.5,Nc1ccc(-c2cccs2)nc1NC(=O)N1Cc2ccc(CN3CCCC3)cc2C1 [Compound 410]
14,0.5 to 5,Nc1ccc(-c2ccc(F)cc2)nc1NC(=O)N1C[C@@H]2[C@@H](CO)[C@@H]2C1 [Compound 238]
15,0.5 to 5,Nc1ccc(-c2ccccc2)nc1NC(=O)c1cn2c(n1)CNCC2 [Compound 208]
16,0.5 to 5,Nc1ccc(-c2ccc(F)cc2)nc1NC(=O)N1CCN(C(=O)C2C[C@H]2c2ccccc2)CC1 (stereo partly drawn) [Compound 225]
17,0.5 to 5,Nc1cn(-c2ccc(F)cc2)nc1NC(=O)N1CCN(C(=O)[C@@H]2C[C@H]2c2ccccc2)CC1 [Compound 125]
18,0.1 to 0.5,CN1CCN(Cc2ccc3c(c2)CN(C(=O)Nc2nc(-c4ccc(F)cc4)ccc2N)C3)CC1 [Compound 367]
19,> 5,Nc1ccc(-c2ccccc2)nc1NC(=O)C1CN(c2ccccn2)C1 [Compound 195]
20,> 5,Nc1ccc(-c2ccc(F)cc2)nc1NC(=O)N1CC2CN(C3COC3)CC2C1 (stereo not drawn) [Compound 203]

row,IC50 [µM],SMILES
1,> 5,Nc1ccc(-c2ccco2)nc1NC(=O)N1CC2CC(N3CC(F)C3)CC2C1 (stereo not drawn) [Compound 189]
2,> 5,Nc1ccc(-c2ccco2)nc1NC(=O)N1CC2CN(CCF)CC2C1 (stereo not drawn) [Compound 174]
3,0.5 to 5,Nc1cn(-c2ccccc2)nc1NC(=O)N1Cc2ccc(CO)cc2C1 [Compound 350]
4,> 5,CN1CCC(C(=O)Nc2nn(-c3ccccc3)cc2N)CC1 [Compound 354]
5,0.1 to 0.5,Nc1ccc(-c2ccc(F)cc2)nc1NC(=O)N1Cc2cc(N3CCOCC3)cnc2C1 [Compound 158]
6,0.5 to 5,Nc1ccc(-n2cccn2)nc1NC(=O)N1Cc2ccncc2C1 [Compound 369]
7,> 5,CN1CC(N2C[C@@H]3C(C(=O)Nc4nc(-c5ccc(F)cc5)ccc4N)[C@@H]3C2)C1 (stereo partly drawn) [Compound 241]
8,0.5 to 5,Nc1ccc(-c2ccccc2)nc1NC(=O)N1CC2CC(NC3COC3)CC2C1 (stereo not drawn) [Compound 191]
9,0.1 to 0.5,CN(C)Cc1cnc2c(c1)CN(C(=O)Nc1nc(-c3cccs3)ccc1N)C2 [Compound 145]
10,0.1 to 0.5,CN(C)Cc1cc2c(cn1)CN(C(=O)Nc1nc(-c3ccc(F)cc3)ccc1N)C2 [Compound 162]
11,0.1 to 0.5,Nc1ccc(-c2ccc(F)cc2)nc1NC(=O)N1Cc2cnc(N3CCC3)cc2C1 [Compound 147]
12,> 5,CC(=O)N1CCC(C(=O)Nc2nc(-c3ccccc3)ccc2N)CC1 [Compound 380]
13,> 5,Nc1ccc(-c2cccnc2)nc1NC(=O)N1Cc2ccc(CO)cc2C1 [Compound 395]
14,0.5 to 5,Cc1ccc(C2CN(C(=O)Nc3nc(-c4ccc(F)cc4)ccc3N)C2)cc1 [Compound 170]
15,> 5,CC(=O)N1CCC(C(=O)Nc2nn(-c3ccccc3)cc2N)CC1 [Compound 358]
16,0.1 to 0.5,CN1CCc2sc(C(=O)Nc3nc(-c4ccco4)ccc3N)nc2C1 [Compound 163]
17,> 5,Nc1cn(-c2ccccc2)nc1NC(=O)N1CCNCC1 [Compound 357]
18,0.1 to 0.5,Nc1ccc(-c2cccs2)nc1NC(=O)N1Cc2nccnc2C1 [Compound 156]
19,0.1 to 0.5,CN(C)Cc1cnc2c(c1)CN(C(=O)Nc1nc(-c3cccnc3)ccc1N)C2 [Compound 161]
20,> 5,Nc1ccc(-c2ccccc2)nc1NC(=O)N1CCn2ccnc2C1 [Compound 197]

# Continued, compound first:
row,SMILES,IC50 [µM]
1,CN1CCN(Cc2cccc3c2CN(C(=O)Nc2nc(-c4ccc(F)cc4)ccc2N)C3)CC1 [Compound 178],> 5
2,Nc1ccc(-c2ccc(F)cc2)nc1NC(=O)N1C[C@@H]2[C@H](C1)[C@H]2NC1COC1 [Compound 267],> 5
3,COCC1CCN(C(=O)Nc2nc(-c3ccc(F)cc3)ccc2N)C1 (stereo not drawn) [Compound 389],> 5
4,Nc1ccc(-c2ccc(F)cc2)nc1NC(=O)N1CCN2CCCC2C1 (stereo not drawn) [Compound 224],> 5
5,Nc1cn(-c2ccccc2)nc1NC(=O)C1CCN(C2COC2)CC1 [Compound 359],> 5
6,Nc1ccc(-c2ccc(OC(F)F)cc2)nc1NC(=O)N1Cc2nccnc2C1 [Compound 228],0.5 to 5
7,Nc1ccc(-c2ccc(F)cc2)nc1NC(=O)N1CCC(F)(F)C1 [Compound 364],0.5 to 5
8,Nc1ccc(-c2ccc(F)cc2)nc1NC(=O)N1CC2CN(CC3CCOCC3)CC2C1 (stereo not drawn) [Compound 235],> 5
9,CN1CC(C(=O)Nc2nc(-c3ccc(F)cc3)ccc2N)C1 [Compound 204],> 5
10,CN(C)Cc1ccc2c(c1)CN(C(=O)Nc1nc(-c3ccc(F)cc3)ccc1N)C2 [Compound 371],0.1 to 0.5
11,CN1CC(Cn2cc3c(n2)CN(C(=O)Nc2nc(-c4ccc(F)cc4)ccc2N)C3)C1 [Compound 245],0.1 to 0.5
12,Nc1ccc(-n2cccn2)nc1NC(=O)C1CCN(Cc2ccccc2F)CC1 [Compound 370],> 5
13,Cc1cc2c(cn1)CN(C(=O)Nc1nc(-c3ccc(F)cc3)ccc1N)C2 [Compound 151],0.1 to 0.5
14,CN(C)Cc1ccc2c(c1)CN(C(=O)Nc1nc(-c3ccc(Cl)s3)ccc1N)C2 [Compound 401],> 5
15,CN1CCC(c2ccc3c(c2)CN(C(=O)Nc2nc(-c4ccc(F)cc4)ccc2N)C3)CC1 [Compound 387],0.5 to 5
16,COc1ccc(-c2ccc(N)c(NC(=O)N3Cc4cc(F)cnc4C3)n2)cc1 [Compound 187],0.5 to 5
17,CN(C)Cc1ccc2c(c1)CN(C(=O)Nc1nn(-c3ccccc3)cc1N)C2 [Compound 351],0.1 to 0.5
18,Nc1ccc(-c2ccc(F)cc2)nc1NC(=O)N1Cc2ccc(CN3CCC(F)(F)C3)cc2C1 [Compound 386],0.1 to 0.5
19,CN1CC2CN(C(=O)Nc3nc(-c4ccc(F)cc4)ccc3N)CC2C1 (stereo not drawn) [Compound 201],> 5

row,SMILES,IC50 [µM]
1,Cc1cnc(C(=O)Nc2nc(-c3ccc(F)cc3)ccc2N)s1 [Compound 226],0.1 to 0.5
2,CN1CCC(N2CCC(C(=O)Nc3nc(-c4ccc(F)cc4)ccc3N)CC2)CC1 [Compound 368],0.5 to 5
3,CN1CCN(c2cnc3c(c2)CN(C(=O)Nc2nc(-c4ccc(F)cc4)ccc2N)C3)CC1 [Compound 159],0.1 to 0.5
4,Nc1ccc(-c2ccc(F)cc2)nc1NC(=O)N1CC2CC(N3CCC3)CC2C1 (stereo not drawn) [Compound 143],0.5 to 5
5,Cn1cc(CN2CCCC3(CCC(C(=O)Nc4nc(-c5ccc(F)cc5)ccc4N)C3)C2)cn1 (stereo not drawn) [Compound 223],> 5
6,Nc1cn(-c2ccccc2)nc1NC(=O)N1CCC2(CCOCC2)C1 [Compound 407],> 5
7,Nc1ccc(-c2ccco2)nc1NC(=O)N1CC2CN(Cc3ccccc3F)CC2C1 (stereo not drawn) [Compound 175],> 5
8,Nc1ccc(-n2cccn2)nc1NC(=O)N1Cc2cc(F)cnc2C1 [Compound 185],0.5 to 5
9,Nc1ccc(-c2ccco2)nc1NC(=O)N1Cc2ccncc2C1 [Compound 372],0.5 to 5
10,CN1CC(CN2C[C@@H]3[C@H](C2)[C@H]3C(=O)Nc2nc(-c3ccc(F)cc3)ccc2N)C1 [Compound 268],> 5
11,Nc1ccc(-c2ccccc2)nc1NC(=O)N1CCn2cncc2C1 [Compound 212],> 5
12,CN(C1CCOC1)C1CC2CN(C(=O)Nc3nc(-c4ccc(F)cc4)ccc3N)CC2C1 (stereo not drawn) [Compound 237],> 5
13,Nc1ccc(-c2ccccc2)nc1NC(=O)C1CCN(Cc2cccnc2)CC1 [Compound 377],> 5
14,CN1CCN(C2CC3CN(C(=O)Nc4nc(-c5ccc(F)cc5)ccc4N)CC3C2)CC1 (stereo not drawn) [Compound 179],0.5 to 5
15,CN1CCN(Cc2ccc3c(c2)CN(C(=O)Nc2nn(-c4ccccc4)cc2N)C3)CC1 [Compound 353],0.5 to 5
16,CN1CCC(N2CC3CN(C(=O)Nc4nc(-c5ccc(F)cc5)ccc4N)CC3C2)CC1 (stereo not drawn) [Compound 169],0.5 to 5
17,CN1CCn2cc(C(=O)Nc3nc(-c4ccccc4)ccc3N)nc2C1 [Compound 206],0.5 to 5
18,COC1CCN(C(=O)Nc2nc(-c3ccc(F)cc3)ccc2N)C1 (stereo not drawn) [Compound 388],0.5 to 5
19,CN(C)Cc1ccc2c(c1)CN(C(=O)Nc1nc(-c3ccco3)ccc1N)C2 [Compound 365],0.1 to 0.5
